“Also recorded” adds a separate entry of the source.
Tests used:
Assay type in all cases: physicochemical
Details in all cases: organic acid calcium from egg shell mixture (A)
[1] = sustained release property in simulated gastric cavity (column, 0.1 N aqueous HCl solution)
Description: Subsequently, 0.1 N aqueous HCl solution simulating a gastric juice as a solvent was passed through this column and separated by a low-pressure chromatography system (Bio-Rad Laboratories, Inc., BioLogic LP Chromatography System) over time. The flow rate of the solvent during the separation was 1.0 mL/min. Then, the calcium ion concentration in each separated solution was measured using Calcium C-test Wako (Wako Pure Chemical Industries, Ltd., Cat. No. 272-21801). The concentration of the organic acid in each separated solution (lactic acid, acetic acid, and citric acid) was measured using F-Kit Lactic Acid, F-Kit Acetic Acid, and F-Kit Citric Acid (Roche Diagnostics K.K., Cat. Nos. 1112821, 148261, and 139076).
(§1) The amount of an eluted solvent (mL) and changes in the amount of calcium ions (integrated value) with elution of 0.1 N HCl were measured, and the amount of an eluted solvent (mL) and changes in the amount of each organic acid (integrated value) with elution of 0.1 N HCl were measured.
Using 0.1 N aqueous HCl solution as a solvent, the amount of solvent (mL) eluted in the simulated gastric cavity and changes in the amount of calcium ions (integrated value) with elution of the solvent were evaluated. […]

[2] = sustained release property in simulated gastric cavity (column, 0.05 N aqueous HCl solution, diluted gastric juice)
Description: as §1, with “0.05” for “0.1”, “measured. Among the obtained results, the measurement results regarding the amount of calcium ions (integrated value) are shown in FIG. 9.” for “measured.”
(§2) Furthermore, as a solvent, 0.05 N aqueous HCl solution was used instead of 0.1 N aqueous HCl solution to simulate a state in which gastric juice in an organism was diluted with drinking water. Except for this condition, the amount of solvent (mL) eluted in the simulated gastric cavity and changes in the amount of calcium ions (integrated value) with elution of the solvent were evaluated in the same manner as in Example 8.
(§3) Using 0.05 N aqueous HCl solution as a solvent, the amount of solvent (mL) eluted in the simulated gastric cavity and changes in the amount of calcium ions (integrated value) with elution of the solvent were evaluated. […]
as §3

[3] = sustained release property in simulated intestines (column, distilled water)
Description: as §1, with “distilled water” for “0.1 N HCl”, “measured. Among the obtained results, the measurement results regarding the amount of calcium ions (integrated value) are shown in FIG. 11.” for “measured.”
as §2, with “distilled water” for “0.05 N aqueous HCl solution”, “acid” for “juice in an organism”, “neutralized when a drink or a food was transported from the stomach to the duodenum.” for “diluted with drinking water.”
Using distilled water as a solvent, the amount of solvent (mL) eluted in the simulated gastric cavity and changes in the amount of calcium ions (integrated value) with elution of the solvent were evaluated. […]
Using distilled water as a solvent, the amount of solvent (mL) eluted in the simulated intestine and changes in the amount of calcium ions (integrated value) with elution of the solvent were evaluated. […]

Compound	amount of each organic acid (integrated value) vs amount of eluted solvent [1]	amount of each organic acid (integrated value) vs amount of eluted solvent [2]	amount of each organic acid (integrated value) vs amount of eluted solvent [3]
O=C([O-])CC(O)(CC(=O)[O-])C(=O)[O-].O=C([O-])CC(O)(CC(=O)[O-])C(=O)[O-].[Ca+2].[Ca+2].[Ca+2] [calcium citrate]	started gradually after the start of elution	gradually dissolved; also recorded: dissolved in virtually the same amount	gradually dissolved
CC(O)C(=O)[O-].CC(O)C(=O)[O-].[Ca+2] (stereo not drawn) [calcium lactate]	dissolved first at the stage of the start of measurement	dissolved first	dissolved first at the stage of the start of measurement

Reference: patent US20100136118A1, “CALCIUM ABSORPTION ENHANCER” (priority 2007, published 2010)
